# According to article PMC8623467, “Biochemical Characterization of Recombinant Isocitrate Dehydrogenase and Its Putative Role in the Physiology of an Acidophilic Micrarchaeon” (Microorganisms, 2021):
# Tested on: T1, MhIDH6x His
# T1 construct: gene icd2; full-length; N-terminal 6xHis tag kept (primer: MHHHHHHEEQKKESIS...); C-terminus AIKSA from primer; pBAD202, E. coli Rosetta pRARE; Ni-IMAC and SEC; homodimer only modelled
# Experiment: NADPH formation at […] nm, Michaelis-Menten fit
# Assay type: biochemical, Candidatus Micrarchaeum harzensis
# Conditions: 100 mM TRIS/HCl pH 8.0, 28 °C, Mg2+ (5 mM MgCl2 standard mixture)
Km (20 mM NADP+ (Figure 4 legend)),Km (1 mM DL-isocitrate),Compound
53 ± 5.63 µM,–,O=C(O)CC(C(=O)O)C(O)C(=O)O (racemic) [DL-isocitrate]
–,1940 ± 120 µM,NC(=O)c1ccc[n+]([C@@H]2O[C@H](COP(=O)(O)OP(=O)(O)OC[C@H]3O[C@@H](n4cnc5c(N)ncnc54)[C@H](OP(=O)(O)O)[C@@H]3O)[C@@H](O)[C@H]2O)c1 [NADP^+]
